The values below come from patent EP4786455A1, “NOVEL PHTHALAZINE DERIVATIVE COMPOUND AS SOS1 INHIBITOR, AND USE THEREOF” (Hanmi Pharmaceutical Co., Ltd., priority 2023, dated 2025).

Broadly, the IC50 is the concentration at which inhibition is half-maximal. A high value points to a need for much substance.

This assay concerns the target T1, SOS1 (Homo sapiens, UniProt Q07889).
T1 construct: comprising amino acid residues 564-1049 corresponding to the catalytic domain; purchased Reaction Biology Corp. SOS1-Strep #MSC-11-502; GST-KRAS G12C #MSC-11-538
T1 sequence (Q07889 564-1049): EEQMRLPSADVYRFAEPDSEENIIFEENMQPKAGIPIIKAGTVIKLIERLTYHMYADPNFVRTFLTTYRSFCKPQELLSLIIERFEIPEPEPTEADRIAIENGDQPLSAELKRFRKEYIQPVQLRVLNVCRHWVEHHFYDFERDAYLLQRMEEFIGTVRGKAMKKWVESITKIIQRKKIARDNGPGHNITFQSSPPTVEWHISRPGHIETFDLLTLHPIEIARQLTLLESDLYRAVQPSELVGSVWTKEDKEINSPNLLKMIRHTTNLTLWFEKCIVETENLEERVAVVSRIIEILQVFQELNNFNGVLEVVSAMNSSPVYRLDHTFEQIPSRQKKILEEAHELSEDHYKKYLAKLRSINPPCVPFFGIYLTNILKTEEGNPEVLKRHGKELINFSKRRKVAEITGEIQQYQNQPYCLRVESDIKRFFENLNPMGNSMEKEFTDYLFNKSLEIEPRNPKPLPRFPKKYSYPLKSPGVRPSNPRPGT
In words: Inhibitory activity on SOS1-mediated GTP exchange (HTRF / TR-FRET nucleotide exchange assay on KRAS G12C). It counts as biochemical. The conditions noted are these: SOS1-mediated GTP exchange on GST-KRAS G12C (residues 2-169); SOS1-Strep catalytic domain (564-1049); GTP-DY-647P1; HTRF signal; 5-point concentration series up to 1,000 nM. On the procedure: To evaluate whether the SOS1-mediated nucleotide exchange activity on KRAS G12C is inhibited by the compounds of the above Examples, a homogeneous time-resolved fluorescence (homogenous time-resolved fluorescence, HTRF) assay was performed using GST-KRAS G12C (#MSC-11-538) and SOS1-Strep (#MSC-11-502) obtained from Reaction Biology Corp. (USA, MA). The activity of SOS1 was determined by measuring the amount of GTP bound to the KRAS G12C protein based on the principle of time-resolved fluorescence resonance energy transfer (time-resolved fluorescence energy transfer, TR-FRET). Terbium (Terbium) conjugated to an anti-GST antibody bound to the GST tag of the GST-KRAS G12C protein served as a FRET donor, and GTP bound to the KRAS G12C protein was labeled with the fluorophore DY-647P1, serving as a FRET acceptor. Based on this principle, a higher HTRF or FRET signal is observed as more GTP is bound to KRAS G12C due to the SOS1-mediated exchange reaction in the assay.
In summary, a GST-labeled KRAS G12C protein (comprising amino acid residues 2-169), a […] SOS1 protein (comprising amino acid residues 564-1049 corresponding to the catalytic domain), an anti-GST antibody, labeled nucleotide GTP-DY-647P1, and the test compound were mixed in a buffer solution containing 20 mM HEPES (pH 7.4), 150 mM NaCl, 5 mM MgCl2, 1 mM dithiothreitol (DTT), 0.05% BSA, and 0.0025% NP40. The mixture was dispensed into a 384-well plate, incubated at room temperature, and the HTRF signal was measured using a PHERAstar microplate reader (BMG Labtech). The excitation wavelength was 337 nm, and emission was measured at 620/665 nm. A background signal value was determined from fluorescence measurements obtained in the absence of SOS1 protein and was subtracted from all measured HTRF values. A control value was determined from fluorescence measurements obtained in the absence of the synthesized compounds and was set as the 100% reference. Fluorescence signals were measured at compound concentrations of 0.1, 1, 10, 100, and 1,000 nM (5 points, 10-fold) or 1.6, 8, 40, 200, and 1,000 nM (5 points, 5-fold). The 50% inhibitory concentration (IC50) values of the compounds were calculated using GraphPad Prism.
IC50 values were denoted as +++ when 50 nM or less, ++ when greater than 50 nM and 100 nM or less, and + when greater than 100 nM.
Background: Time-resolved FRET reads energy transfer from a long-lived donor to a nearby acceptor.

As to `CNc1cc2c(N[C@H](C)c3cccc(C#N)c3C)nnc(C)c2cc1C(=O)N1CCOCC1` [Example 1, (R)-2-methyl-3-(1-((4-methyl-7-(methylamino)-6-(morpholine-4-carbonyl)phthalazin-1-yl)amino)ethyl)benzonitrile], the IC50 is not above 50 nM.
As for `CNc1cc2c(N[C@H](C)c3cccc(C#N)c3C)nnc(C)c2cc1C(=O)N1CCSCC1` [Example 2, (R)-2-methyl-3-(1-((4-methyl-7-(methylamino)-6-(thiomorpholine-4-carbonyl)phthalazin-1-yl)amino)ethyl)benzonitrile], the IC50 is not above 50 nM.
Next, `CNc1cc2c(N[C@H](C)c3cccc(C#N)c3C)nnc(C)c2cc1C(=O)N1CCSC1` [Example 3, (R)-2-methyl-3-(1-((4-methyl-7-(methylamino)-6-(thiazolidine-3-carbonyl)phthalazin-1-yl)amino)ethyl)benzonitrile]: not above 50 nM; `CNc1cc2c(N[C@H](C)c3cccc(C#N)c3C)nnc(C)c2cc1C(=O)N1CCS(=O)(=O)CC1` [Example 4, (R)-3-(1-((6-(1,1-dioxothiomorpholine-4-carbonyl)-4-methyl-7-(methylamino)phthalazin-1-yl)amino)ethyl)-2-methylbenzonitrile]: not above 50 nM; `CNc1cc2c(N[C@H](C)c3cccc(C#N)c3C)nnc(C)c2cc1C(=O)NC1CCOCC1` [Example 5, (R)-1-((1-(3-cyano-2-methylphenyl)ethyl)amino)-4-methyl-7-(methylamino)-N-(tetrahydro-2H-pyran-4-yl)phthalazine-6-carboxamide]: not above 50 nM.
In turn, `CNc1cc2c(N[C@H](C)c3cccc(C#N)c3C)nnc(C)c2cc1C(=O)N(C)C1CCOCC1` [Example 6, (R)-1-((1-(3-cyano-2-methylphenyl)ethyl)amino)-N,4-dimethyl-7-(methylamino)-N-(tetrahydro-2H-pyran-4-yl)phthalazine-6-carboxamide] registered an IC50 not above 50 nM.
For the molecule `CNc1cc2c(N[C@H](C)c3cccc(C#N)c3C)nnc(C)c2cc1C(=O)N1CC2COCC2C1` (stereo partly drawn) [Example 7, 3-((1R)-1-((6-(hexahydro-1H-furo[3,4-c]pyrrole-5-carbonyl)-4-methyl-7-(methylamino)phthalazin-1-yl)amino)ethyl)-2-methylbenzonitrile], the 50% inhibitory concentration (IC50) is not above 50 nM.
Next, `CNc1cc2c(N[C@H](C)c3cccc(C#N)c3C)nnc(C)c2cc1C(=O)N1CCN(C)CC1` [Example 8, (R)-2-methyl-3-(1-((4-methyl-7-(methylamino)-6-(4-methylpiperazine-1-carbonyl)phthalazin-1-yl)amino)ethyl)benzonitrile]: not above 50 nM; `CNc1cc2c(N[C@H](C)c3cccc(C#N)c3C)nnc(C)c2cc1C(=O)N1CCNCC1` [Example 9, (R)-2-methyl-3-(1-((4-methyl-7-(methylamino)-6-(piperazine-1-carbonyl)phthalazin-1-yl)amino)ethyl)benzonitrile]: not above 50 nM.
Next, `CNc1cc2c(N[C@H](C)c3cccc(C#N)c3C)nnc(C)c2cc1C(=O)N1CCC(F)(F)CC1` [Example 10, (R)-3-(1-((6-(4,4-difluoropiperidin-1-carbonyl)-4-methyl-7-(methylamino)phthalazin-1-yl)amino)ethyl)-2-methylbenzonitrile]: not above 50 nM; `CNc1cc2c(N[C@H](C)c3cccc(C#N)c3C)nnc(C)c2cc1C(=O)N1CC2(COC2)C1` [Example 11, (R)-2-methyl-3-(1-((4-methyl-7-(methylamino)-6-(2-oxa-6-azaspiro[3.3]heptane-6-carbonyl)phthalazin-1-yl)amino)ethyl)benzonitrile]: not above 50 nM; `CCN1CCN(C(=O)c2cc3c(C)nnc(N[C@H](C)c4cccc(C#N)c4C)c3cc2NC)CC1` [Example 12, (R)-3-(1-((6-(4-ethylpiperazine-1-carbonyl)-4-methyl-7-(methylamino)phthalazin-1-yl)amino)ethyl)-2-methylbenzonitrile]: not above 50 nM.
As for `CNc1cc2c(N[C@H](C)c3cccc(C#N)c3C)nnc(C)c2cc1C(=O)N1CCN(C2CC2)CC1` [Example 13, (R)-3-(1-((6-(4-cyclopropylpiperazine-1-carbonyl)-4-methyl-7-(methylamino)phthalazin-1-yl)amino)ethyl)-2-methylbenzonitrile], the 50% inhibitory concentration (IC50) is not above 50 nM.
Take `CNc1cc2c(N[C@H](C)c3cccc(C#N)c3C)nnc(C)c2cc1C(=O)N1CCCC1` [Example 14, (R)-2-methyl-3-(1-((4-methyl-7-(methylamino)-6-(pyrrolidine-1-carbonyl)phthalazin-1-yl)amino)ethyl)benzonitrile]: the IC50 was not above 50 nM.
In the case of `CNc1cc2c(N[C@H](C)c3cccc(C#N)c3C)nnc(C)c2cc1C(=O)N1CCCCC1` [Example 15, (R)-2-methyl-3-(1-((4-methyl-7-(methylamino)-6-(piperidine-1-carbonyl)phthalazin-1-yl)amino)ethyl)benzonitrile], the half-maximal inhibitory concentration (IC50) is not above 50 nM.
Next, `CNc1cc2c(N[C@H](C)c3cccc(C#N)c3C)nnc(C)c2cc1C(=O)N1CCC1` [Example 16, (R)-3-(1-((6-(azetidine-1-carbonyl)-4-methyl-7-(methylamino)phthalazin-1-yl)amino)ethyl)-2-methylbenzonitrile]: not above 50 nM; `CNc1cc2c(N[C@H](C)c3cccc(C#N)c3C)nnc(C)c2cc1C(=O)N1CC(F)C1` [Example 17, (R)-3-(1-((6-(3-fluoroazetidine-1-carbonyl)-4-methyl-7-(methylamino)phthalazin-1-yl)amino)ethyl)-2-methylbenzonitrile]: not above 50 nM; `CNc1cc2c(N[C@H](C)c3cccc(C#N)c3C)nnc(C)c2cc1C(=O)N1CCC2(CC2)C1` [Example 18, (R)-2-methyl-3-(1-((4-methyl-7-(methylamino)-6-(5-azaspiro[2.4]heptane-5-carbonyl)phthalazin-1-yl)amino)ethyl)benzonitrile]: not above 50 nM.
Molecule `CNc1cc2c(N[C@H](C)c3cccc(C#N)c3C)nnc(C)c2cc1C(=O)N1CC2CC1CO2` (stereo partly drawn) [Example 19, 3-((1R)-1-((6-(2-oxa-5-azabicyclo[2.2.1]heptane-5-carbonyl)-4-methyl-7-(methylamino)phthalazin-1-yl)amino)ethyl)-2-methylbenzonitrile] displayed an IC50 not above 50 nM.
Molecule `CNc1cc2c(N[C@H](C)c3cccc(C#N)c3C)nnc(C)c2cc1C(=O)N1CCN(C2CCCCC2)CC1` [Example 20, (R)-3-(1-((6-(4-cyclohexylpiperazine-1-carbonyl)-4-methyl-7-(methylamino)phthalazin-1-yl)amino)ethyl)-2-methylbenzonitrile] returned an IC50 not above 50 nM.
`CNc1cc2c(N[C@H](C)c3cccc(C#N)c3C)nnc(C)c2cc1C(=O)N1CCN(C(C)C)CC1` [Example 21, (R)-3-(1-((6-(4-isopropylpiperazine-1-carbonyl)-4-methyl-7-(methylamino)phthalazin-1-yl)amino)ethyl)-2-methylbenzonitrile] came in with an IC50 not above 50 nM.
Turning to `CNc1cc2c(N[C@H](C)c3cccc(C#N)c3C)nnc(C)c2cc1C(=O)N1CCC(N2CCOCC2)CC1` [Example 22, (R)-2-methyl-3-(1-((4-methyl-7-(methylamino)-6-(4-morpholinopiperidin-1-carbonyl)phthalazin-1-yl)amino)ethyl)benzonitrile], the concentration for half-maximal inhibition (IC50) is not above 50 nM.
Take `CNc1cc2c(N[C@H](C)c3cccc(C#N)c3C)nnc(C)c2cc1C(=O)NCCN1CCOCC1` [Example 23, (R)-1-((1-(3-cyano-2-methylphenyl)ethyl)amino)-4-methyl-7-(methylamino)-N-(2-morpholinoethyl)phthalazine-6-carboxamide]: the half-maximal inhibitory concentration (IC50) was not above 50 nM.
